Patent US12344603B2 (Genentech, Inc., priority 2020, dated 2025)
Structures can show the parent of a compound that is named as a salt.

Target: IRE1α (Homo sapiens (Human), UniProt O75460, D688N)
Test: IRE1α TR-FRET competition binding assay (IRE1α HTRF)
Conditions: TR-FRET competition binding to kinase domain of IRE1α
In short: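 Kinase domain (0.25 nM) pre-bound to 2 nM Eu anti-His antibody for 1 h at 4° C in HEPES pH 7.5/MgCl2/Brij 35/DTT/gamma globulin buffer, then mixed with compounds and 2 nM Alexa 647 ATP-competitive probe. 1 h at room temperature; probe displacement read as TR-FRET (Ex 347 nm, Em 665/615 nm).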

IRE1α, sequence (O75460 547-977 D688N): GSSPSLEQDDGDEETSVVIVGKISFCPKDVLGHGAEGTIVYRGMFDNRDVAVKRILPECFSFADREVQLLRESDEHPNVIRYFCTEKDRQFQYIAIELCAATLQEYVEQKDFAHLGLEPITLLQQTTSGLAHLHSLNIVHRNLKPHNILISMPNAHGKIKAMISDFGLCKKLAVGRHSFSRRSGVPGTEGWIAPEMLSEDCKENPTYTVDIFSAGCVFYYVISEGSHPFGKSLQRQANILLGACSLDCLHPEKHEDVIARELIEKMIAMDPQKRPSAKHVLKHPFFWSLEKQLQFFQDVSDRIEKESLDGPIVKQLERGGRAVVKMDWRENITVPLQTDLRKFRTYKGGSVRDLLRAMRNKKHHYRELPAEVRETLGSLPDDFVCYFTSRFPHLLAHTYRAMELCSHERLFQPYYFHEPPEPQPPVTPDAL

SMILES | IC50
CC(C)n1c(=O)c(-c2ccc(NS(=O)(=O)CCC(C)(F)F)c(F)c2)nc2cnc(N[C@@H]3CNC[C@@H](F)C3)nc21 [Compound 84, 3,3-Difluoro-N-[2-fluoro-4-[2-[[(3S,5S)-5-fluoro-3-piperidyl]amino]-8-isopropyl-7-oxo-pteridin-6-yl]phenyl]butane-1-sulfonamide] | 0.4 nM
CC(C)n1c(=O)c(-c2cc(NS(=O)(=O)CCC(F)(F)F)nn2C)cc2cnc(N[C@@H]3CNC[C@@H](F)C3)nc21 [Compound 85] | 16 nM
CC(C)n1c(=O)c(-c2cc(F)c(NS(=O)(=O)Cc3ccccc3F)c(F)c2F)cc2cnc(N[C@H]3CNC[C@@H](O)C3)nc21 [Compound 88, 1-(2-Fluorophenyl)-N-(2,3,6-trifluoro-4-(2-(((3R,5S)-5-hydroxypiperidin-3-yl)amino)-8-isopropyl-7-oxo-7,8-dihydropyrido[2,3-d]pyrimidin-6-yl)phenyl)methanesulfonamide] | 8.5 nM
CC(C)n1c(=O)c(-c2cc(F)c(NS(=O)(=O)Cc3ccccc3F)c(F)c2F)cc2cnc(N[C@@H]3CNC[C@H](O)C3)nc21 [Compound 89, 1-(2-fluorophenyl)-N-(2,3,6-trifluoro-4-(2-(((3S,5R)-5-hydroxypiperidin-3-yl)amino)-8-isopropyl-7-oxo-7,8-dihydropyrido[2,3-d]pyrimidin-6-yl)phenyl)methanesulfonamide] | 0.34 nM
CC(C)n1c(=O)c(-c2ccc(NS(=O)(=O)CCC(F)(F)F)c(F)c2)cc2cnc(N[C@@H]3CNC[C@@H](F)C3)nc21 [Compound 92, 3,3,3-Trifluoro-N-(2-fluoro-4-(2-(((3S,5S)-5-fluoropiperidin-3-yl)amino)-8-isopropyl-7-oxo-7,8-dihydropyrido[2,3-d]pyrimidin-6-yl)phenyl)propane-1-sulfonamide] | 0.3 nM
CC(C)n1c(=O)c(-c2ccc(NS(=O)(=O)Cc3ccccc3F)cn2)cc2cnc(N[C@@H]3CNC[C@@H](F)C3)nc21 [Compound 95, 1-(2-Fluorophenyl)-N-(6-(2-(((3S,5S)-5-fluoropiperidin-3-yl)amino)-8-isopropyl-7-oxo-7,8-dihydropyrido[2,3-d]pyrimidin-6-yl)pyridin-3-yl)methanesulfonamide] | 0.46 nM
CC(C)n1c(=O)c(-c2cc(F)c(NC(=O)[C@@H]3C[C@@H]3F)c(F)c2F)cc2cnc(N[C@H]3CC[C@H](N(C)C)CC3)nc21 [Compound 96, (1S,2S)—N-(4-(2-(((r,4r)-4-(dimethylamino)cyclohexyl)amino)-8-isopropyl-7-oxo-7,8-dihydropyrido[2,3-d]pyrimidin-6-yl)-2,3,6-trifluorophenyl)-2-fluorocyclopropane-1-carboxamide] | 1.6 nM
COc1ccc(Cl)cc1CS(=O)(=O)Nc1c(F)cc(-c2cc3cnc(N[C@@H]4CNC[C@@H](F)C4)nc3n(C(C)C)c2=O)c(F)c1F [Compound 97, 1-(5-Chloro-2-methoxyphenyl)-N-(2,3,6-trifluoro-4-(2-(((3S,5S)-5-fluoropiperidin-3-yl)amino)-8-isopropyl-7-oxo-7,8-dihydropyrido[2,3-d]pyrimidin-6-yl)phenyl)methanesulfonamide hydrochloride] | 0.27 nM
CC(C)n1c(=O)c(-c2cc(F)c(NCC(O)C(F)(F)F)c(F)c2F)cc2cnc(N[C@H]3CC[C@H](N(C)C)CC3)nc21 (stereo partly shown) [Compound 99, 2-(((1r,4r)-4-(Dimethylamino)cyclohexyl)amino)-8-isopropyl-6-(2,3,5-trifluoro-4-((3,3,3-trifluoro-2-hydroxypropyl)amino)phenyl)pyrido[2,3-d]pyrimidin-7(8H)-one] | 46 nM
CC(C)n1c(=O)c(-c2cc(F)c(NCC(O)C(F)(F)F)c(F)c2F)cc2cnc(N[C@H]3CC[C@H](N(C)C)CC3)nc21 (stereo partly shown) [Compound 99A, 2-(((1r,4r)-4-(Dimethylamino)cyclohexyl)amino)-8-isopropyl-6-(2,3,5-trifluoro-4-((3,3,3-trifluoro-2-hydroxypropyl)amino)phenyl)pyrido[2,3-d]pyrimidin-7(8H)-one] | 68 nM
CC(C)n1c(=O)c(-c2ccc(NS(=O)(=O)CCC(F)(F)F)c(F)c2)cc2cnc(N[C@H]3CCC[C@H](N)C3)nc21 [Compound 103, N-(4-(2-(((1S,3S)-3-Aminocyclohexyl)amino)-8-isopropyl-7-oxo-7,8-dihydropyrido[2,3-d]pyrimidin-6-yl)-2-fluorophenyl)-3,3,3-trifluoropropane-1-sulfonamide] | 26 nM
CC(C)n1c(=O)c(-c2ccc(NS(=O)(=O)CCC(F)(F)F)c(F)c2)cc2cnc(N[C@H]3CCC[C@H](N(C)C)C3)nc21 [Compound 104, hydrochloride] | 72 nM
CC(C)n1c(=O)c(-c2ccc(NS(=O)(=O)CCC(F)(F)F)c(F)c2)cc2cnc(N[C@H]3CCC[C@@H](N)C3)nc21 [Compound 108, N-(4-(2-(((1S,3R)-3-Aminocyclohexyl)amino)-8-isopropyl-7-oxo-7,8-dihydropyrido[2,3-d]pyrimidin-6-yl)-2-fluorophenyl)-3,3,3-trifluoropropane-1-sulfonamide hydrochloride] | 23 nM
CC(C)n1c(=O)c(-c2ccc(NS(=O)(=O)CCC(F)(F)F)c(F)c2)cc2cnc(N[C@H]3CCC[C@@H](N(C)C)C3)nc21 [Compound 114, N-(4-(2-(((1S,3R)-3-(Dimethylamino)cyclohexyl)amino)-8-isopropyl-7-oxo-7,8-dihydropyrido[2,3-d]pyrimidin-6-yl)-2-fluorophenyl)-3,3,3-trifluoropropane-1-sulfonamide] | 180 nM

Next, values leading:

IC50 | SMILES
0.16 nM | CC(C)n1c(=O)c(-c2cc(F)c(NS(=O)(=O)Cc3ccccc3F)c(F)c2F)cc2cnc(N[C@@H]3CNC[C@@H](F)C3)nc21 [Compound 86, 1-(2-Fluorophenyl)-N-(2,3,6-trifluoro-4-(2-(((3S,5S)-5-fluoropiperidin-3-yl)amino)-8-isopropyl-7-oxo-7,8-dihydropyrido[2,3-d]pyrimidin-6-yl)phenyl)methanesulfonamide]
0.21 nM | CC(C)n1c(=O)c(-c2ccc(NS(=O)(=O)Cc3ccccc3F)c(F)c2)cc2cnc(N[C@@H]3CNC[C@@H](F)C3)nc21 [Compound 90, N-(2-Fluoro-4-(2-(((3S,5S)-5-fluoropiperidin-3-yl)amino)-8-isopropyl-7-oxo-7,8-dihydropyrido[2,3-d]pyrimidin-6-yl)phenyl)-1-(2-fluorophenyl)methanesulfonamide]
0.13 nM | CC(C)n1c(=O)c(-c2ccc(NS(=O)(=O)CCC(F)(F)F)c(F)c2)cc2cnc(N[C@H]3CC[C@H](N(C)C)CC3)nc21 [Compound 91, N-(4-(2-(((1r,4r)-4-(Dimethylamino)cyclohexyl)amino)-8-isopropyl-7-oxo-7,8-dihydropyrido[2,3-d]pyrimidin-6-yl)-2-fluorophenyl)-3,3,3-trifluoropropane-1-sulfonamide]
0.24 nM | CC(C)n1c(=O)c(-c2ccc(NS(=O)(=O)Cc3ccccc3F)nc2)cc2cnc(N[C@@H]3CNC[C@@H](F)C3)nc21 [Compound 93, 1-(2-Fluorophenyl)-N-(5-(2-(((3S,5S)-5-fluoropiperidin-3-yl)amino)-8-isopropyl-7-oxo-7,8-dihydropyrido[2,3-d]pyrimidin-6-yl)pyridin-2-yl)methanesulfonamide]
0.27 nM | CC(C)n1c(=O)c(-c2ccc(NS(=O)(=O)Cc3ccccc3F)cn2)cc2cnc(N[C@H]3CC[C@H](N(C)C)CC3)nc21 [Compound 94, N-(6-(2-(((1r,4r)-4-(Dimethylamino)cyclohexyl)amino)-8-isopropyl-7-oxo-7,8-dihydropyrido[2,3-d]pyrimidin-6-yl)pyridin-3-yl)-1-(2-fluorophenyl)methanesulfonamide]
0.16 nM | CC(C)n1c(=O)c(-c2ccc(NS(=O)(=O)c3ccccc3Cl)nc2)cc2cnc(N[C@H]3CC[C@H](N(C)C)CC3)nc21 [Compound 105, 2-Chloro-N-(5-(2-(((1r,4r)-4-(dimethylamino)cyclohexyl)amino)-8-isopropyl-7-oxo-7,8-dihydropyrido[2,3-d]pyrimidin-6-yl)pyridin-2-yl)benzenesulfonamide]
0.15 nM | CC(C)n1c(=O)c(-c2ccc(NS(=O)(=O)c3ccccc3)nc2)cc2cnc(N[C@H]3CC[C@H](N(C)C)CC3)nc21 [Compound 106, N-(5-(2-(((1r,4r)-4-(Dimethylamino)cyclohexyl)amino)-8-isopropyl-7-oxo-7,8-dihydropyrido[2,3-d]pyrimidin-6-yl)pyridin-2-yl)benzenesulfonamide]
0.13 nM | Cc1ccc(CS(=O)(=O)Nc2c(F)cc(-c3cc4cnc(N[C@@H]5CNC[C@@H](F)C5)nc4n(C(C)C)c3=O)c(F)c2F)c(C#N)c1 [Compound 107, 1-(2-Cyano-4-methylphenyl)-N-(2,3,6-trifluoro-4-(2-(((3S,5S)-5-fluoropiperidin-3-yl)amino)-8-isopropyl-7-oxo-7,8-dihydropyrido[2,3-d]pyrimidin-6-yl)phenyl)methanesulfonamide]
0.13 nM | CC(C)n1c(=O)c(-c2ccc(NS(=O)(=O)CC3CCCC3)c(F)c2)cc2cnc(N[C@H]3CC[C@H](N(C)C)CC3)nc21 [Compound 109, 1-Cyclopentyl-N-(4-(2-(((1r,4r)-4-(dimethylamino)cyclohexyl)amino)-8-isopropyl-7-oxo-7,8-dihydropyrido[2,3-d]pyrimidin-6-yl)-2-fluorophenyl)methanesulfonamide]
0.13 nM | CC(C)n1c(=O)c(-c2ccc(NS(=O)(=O)Cc3ccc(F)cc3)c(F)c2)cc2cnc(N[C@@H]3CNC[C@@H](F)C3)nc21 [Compound 112, N-(2-Fluoro-4-(2-(((3S,5S)-5-fluoropiperidin-3-yl)amino)-8-isopropyl-7-oxo-7,8-dihydropyrido[2,3-d]pyrimidin-6-yl)phenyl)-1-(4-fluorophenyl)methanesulfonamide hydrochloride]
0.22 nM | Cc1ccc(CS(=O)(=O)Nc2c(F)cc(-c3cc4cnc(N[C@H]5CC[C@H](N(C)C)CC5)nc4n(C(C)C)c3=O)c(F)c2F)c(C#N)c1 [Compound 113, 1-(2-Cyano-4-methylphenyl)-N-(4-(2-(((1r,4r)-4-(dimethylamino)cyclohexyl)amino)-8-isopropyl-7-oxo-7,8-dihydropyrido[2,3-d]pyrimidin-6-yl)-2,3,6-trifluorophenyl)methanesulfonamide]
